ChEMBL document CHEMBL5236642, “Discovery of structural diverse reversible BTK inhibitors utilized to develop a novel in vivo CD69 and CD86 PK/PD mouse model” (Bioorg Med Chem Lett, 2023)
Values after ≈ are worked out from the molar mass of the structure shown.

Assays:
[1] = Solubility of the compound; assay type: physicochemical
[2] = Half-life in Sprague-Dawley rat at 1 mg/kg, iv; assay type: ADME, organism-based; conditions: in vivo
[3] = Apparent permeability from apical to basolateral side in human CaCo-2/TC-7 cells; assay type: ADME, cell-based, Caco2/TC7
[4] = Tmax in Sprague-Dawley rat at 5 mg/kg, po; assay type: ADME, organism-based; conditions: in vivo
[5] = Oral bioavailability in Sprague-Dawley rat at 5 mg/kg; assay type: ADME, organism-based; conditions: in vivo
[6] = Volume of distribution at steady state in Sprague-Dawley rat at 1 mg/kg, iv; assay type: ADME, organism-based; conditions: in vivo, read-out: Vdss
[7] = Tmax in rat at 2 mg/kg, po; assay type: ADME, organism-based; conditions: in vivo
[8] = Oral bioavailability in rat at 2 mg/kg; assay type: ADME, organism-based; conditions: in vivo
[9] = Half-life in rat at 2 mg/kg, iv; assay type: ADME, organism-based; conditions: in vivo
[10] = Clearance in rat at 2 mg/kg, iv; assay type: ADME, organism-based; conditions: in vivo

SMILES | solubility [1] [µg/mL] | half-life [2] [h] | Papp A→B [3] [×10⁻⁶ cm/s] | Tmax [4] [h] | bioavailability [5] [%] | Vd [6] [L/kg] | Tmax [7] [h] | bioavailability [8] [%] | half-life [9] [h] | CL [10] [mg/mL/kg]
O=C(CNc1cc(Cl)cc(Cl)c1)NC1CCCN(c2ncnc3[nH]ccc23)C1 (stereo not given) | 39 (≈ 93 µM) |  |  |  |  |  |  |  |  | 
O=C(CNc1cc(Cl)cc(Cl)c1)N1CC[C@H]2CCN(c3ncnc4[nH]ccc34)[C@H]2C1 |  | 0.9 | 190 | 0.87 | 34 | 1.1 |  |  |  | 
C[C@@H]1[C@H](Nc2ncnc3[nH]ccc23)CCCN1C(=O)CNc1cc(Cl)cc(Cl)c1 |  | 5.3 | 150 | 1.6 | 23 | 1.3 |  |  |  | 
O=C(CNc1cc(Cl)cc(Cl)c1)N1CCC[C@@H](Nc2ncnc3[nH]ccc23)C1 |  |  |  |  |  |  | 2 | 98 | 13.3 | 8
